Data set [1] addresses T1, TtGuaA (GMP synthetase, GuaA) (Thermus thermophilus, UniProt Q5SI28).
T1 construct: full length, 503 residues, no tag; pET-11a in E. coli Rosetta(DE3); selenomethionyl crystals for the XMP complex; homodimer
T1 sequence (Q5SI28 1-503): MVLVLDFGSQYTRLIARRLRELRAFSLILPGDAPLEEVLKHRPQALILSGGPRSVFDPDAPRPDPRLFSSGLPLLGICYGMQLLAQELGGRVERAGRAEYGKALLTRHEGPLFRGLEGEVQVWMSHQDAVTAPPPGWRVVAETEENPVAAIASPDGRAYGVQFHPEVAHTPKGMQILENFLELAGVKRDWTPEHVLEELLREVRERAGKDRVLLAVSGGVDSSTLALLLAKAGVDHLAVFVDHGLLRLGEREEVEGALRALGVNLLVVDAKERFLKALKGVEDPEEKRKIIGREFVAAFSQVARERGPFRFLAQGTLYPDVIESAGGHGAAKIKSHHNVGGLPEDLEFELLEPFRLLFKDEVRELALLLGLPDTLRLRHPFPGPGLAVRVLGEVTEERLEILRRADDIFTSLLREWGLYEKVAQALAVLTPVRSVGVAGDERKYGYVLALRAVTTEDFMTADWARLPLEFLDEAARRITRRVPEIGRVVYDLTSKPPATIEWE
In words: X-ray crystallography, […] Å. The data set is classed as binding. As to conditions: co-crystal with 10 mM XMP, pH 4.4, 20 °C; site between ATPPase and dimerization domains.

Data set [2] deals with the molecule itself. In words: SEC; size-exclusion chromatography of purified TtGuaA; conditions of the estimate not told.

As to `O=c1[nH]c(=O)c2ncn([C@@H]3O[C@H](COP(=O)(O)O)[C@@H](O)[C@H]3O)c2[nH]1` [XMP], the “X-ray crystallography, 2.20 Å” value in data set [1] is on record as “In TtGuaA–XMP, one XMP molecule was bound to each monomer”.

B1: Guanosine 5′-monophosphate (GMP) synthetase (GuaA) from Thermus thermophilus HB8 (enzyme, Thermus thermophilus (strain HB8))
chain: T1 sequence (Q5SI28 1-503)
notes: GMP synthetase (GuaA), Thermus thermophilus HB8, gene TTHA1552; The apo structure (2ywb) was solved with native protein; the XMP complex (2ywc) was solved from selenomethionyl protein crystals; No tag is stated for the construct; also called TtGuaA; TTHA1552
B1: the “stoichiometry N” value in data set [2] was 2.

One may read the stoichiometry N as a count of units in the complex or per binding partner.

(Values after publication PMC11448925, “Crystal structure of guanosine 5′-monophosphate synthetase from the thermophilic bacterium Thermus thermophilus HB8” (Acta Crystallographica Section F: Structural Biology …, 2024).)
